Reference: paper PMC5688156, “The natural product carolacton inhibits folate-dependent C1 metabolism by targeting FolD/MTHFD” (Nature Communications, 2017)
Read-outs that look alike come from different tables or passages of the source.

Assays:
spFolD = biological target: T1, spFolD (Streptococcus pneumoniae serotype 4, UniProt Q97RI9); assay: spFolD dehydrogenase (DH) enzyme assay; format: biochemical, S. pneumoniae
T1 construct: His-tag (TEV-cleavable, vector pHis-TEV); made in house; host or cells: E. coli BL21 (DE3)
Description: (§1) (6R,S)-5,10-Methylene-5,6,7,8-tetrahydrofolic acid ((6R,S)-5,10-CH2-THF) calcium salt and (6R,S)-5,10-Methenyl-5,6,7,8-tetrahydrofolic acid ((6R,S)-5,10-CH=THF) chloride were purchased from Schircks Laboratories (Bauma, Switzerland) and used as substrates for FolD dehydrogenase and cyclohydrolase enzyme assays, respectively. Only the R-isomer, which accounts for 50% of (6R,S)-5,10-CH2-THF and (6R,S)-5,10-CH=THF, respectively, is used by the enzyme. (6R,S)-5,10-CH2-THF was dissolved in N2-spargeled basic buffer (50 mM Tris-HCl (pH 8.0), 100 mM β-mercaptoethanol) as described by Varshney et al.[25]. (6R,S)-5,10-CH=THF was dissolved in DMSO as a 100 mM stock solution.
(§2) Because FolD is a bifunctional enzyme, dehydrogenase and cyclohydrolase activities were determined for FolD enzyme kinetics, respectively. The dehydrogenase activity of FolD was assayed for its substrate 5,10-CH2-THF and cofactor NADP^+ (in the case of MTHFD2, NAD^+ was used as the cofactor) based on monitoring the formation of 5,10-CH=THF, while the cyclohydrolase activity of FolD was determined for its substrate 5,10-CH=THF by monitoring the hydrolysis of […]. The enzyme kinetics for the dehydrogenase activity of all FolDs except hsMTHFD1_DC were determined at 30 °C in 50 mM Tris-HCl (pH 7.5), 30 mM β-mercaptoethanol. The hsMTHFD1_DC dehydrogenase activity was measured in 25 mM MOPS (pH 7.3), 30 mM β-mercaptoethanol at 30 °C. To measure the enzyme kinetic constants for 5,10-CH2-THF, for example in the case of ecFolD, the NADP concentration was fixed at 1 mM and the concentration of 5,10-CH2-THF varied from 5 to 1500 μM (R-isomer). Similarly, to measure the kinetic constants of ecFolD for NADP^+, the concentration of 5,10-CH2-THF (R-isomer) was fixed at 1 mM and the concentration of NADP^+ varied from 10 to 1500 μM. For different FolDs, the varied concentration range of substrates could be different. […] To monitor the formation of 5,10-CH=THF, the absorbance of the reaction mixture was monitored at 350 nm in micro UV cuvettes (BRAND, Essex, Connecticut, USA). The concentration of 5,10-CH=THF produced in the reaction was determined using an extinction co-efficient of 0.0249 μM^−1 cm^−1. […] The consumption of 5,10-CH=THF was measured by recording the absorbance of the reactions at 355 nm using the TECAN Infinite 200 PRO equipped with a monochromator. […] The inhibition constants (K i) of carolacton on FolD were determined by measuring the apparent K m when adding certain amounts of carolacton to the enzyme reactions. […] To compare the inhibition effects of carolacton between the different FolDs, the half maximal inhibitory concentration (IC50) of carolacton on the same amount of enzyme was determined for FolDs involved in this study. […]

hsMTHFD2 = biological target: T2, hsMTHFD2 (Homo sapiens, UniProt P13995); assay: hsMTHFD2 dehydrogenase (DH) enzyme assay; format: biochemical
T2 construct: His-tag (vector pHis-TEV) (cleaved yes); made in house; host or cells: E. coli BL21 (DE3)
T2 sequence (P13995 36-350): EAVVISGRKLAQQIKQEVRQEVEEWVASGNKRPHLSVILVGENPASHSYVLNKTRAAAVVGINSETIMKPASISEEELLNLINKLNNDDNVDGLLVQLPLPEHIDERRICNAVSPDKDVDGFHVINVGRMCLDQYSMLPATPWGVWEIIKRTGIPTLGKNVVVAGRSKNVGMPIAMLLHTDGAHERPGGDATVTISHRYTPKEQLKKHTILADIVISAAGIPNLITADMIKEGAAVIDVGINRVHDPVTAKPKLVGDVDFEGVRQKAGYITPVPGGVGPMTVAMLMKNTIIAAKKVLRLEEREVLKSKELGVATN
Description: as §1, §2

E. coli DSM-1116 (WT) = assay: MIC determination on E. coli DSM-1116 (WT); format: cell-based; conditions: Escherichia coli
Description: The determination of MICs was performed as described elsewhere. In brief, E. coli strains were treated with carolacton in serial dilution in either the presence or absence of sub-inhibitory concentrations of polymyxin B nonapeptide (PMBN; 3 µg/mL) and/or phenylalanine–arginine β-napthylamide (PAβN; 20 µg/mL) for 16 h at 37 °C in Mueller–Hinton broth. The MICs were assessed by visual inspection of the plates.

[1] = 10 nM enzyme, read-out: IC50, carolacton inhibition on DH activity
[2] = 10 nM enzyme, read-out: IC80, carolacton inhibition on DH activity
[3] = vs 5,10-CH2-THF, read-out: Ki (5,10-CH2-THF), carolacton inhibition on DH activity

T1 sequence (Q97RI9 whole entry): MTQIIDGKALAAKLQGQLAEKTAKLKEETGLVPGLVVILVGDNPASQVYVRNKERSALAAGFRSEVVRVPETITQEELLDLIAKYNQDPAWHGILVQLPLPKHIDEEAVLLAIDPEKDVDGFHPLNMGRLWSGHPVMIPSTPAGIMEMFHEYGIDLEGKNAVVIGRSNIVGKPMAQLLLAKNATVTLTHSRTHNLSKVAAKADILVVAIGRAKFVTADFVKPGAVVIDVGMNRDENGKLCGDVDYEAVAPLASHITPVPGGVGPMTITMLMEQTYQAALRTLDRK

Question: For `CO[C@H](CC(=O)O)[C@@H](C)C(=O)[C@H](C)/C=C(\C)[C@H]1OC(=O)[C@H](O)[C@H](O)/C=C/[C@H](C)CCC[C@@H]1C` [carolacton], which IC50 (spFolD; [1]) is on record?
Answer: 0.0368 µM

Question: What about the IC80 (spFolD; [2]) of the same molecule?
Answer: 0.169 µM

Question: What about the Ki (spFolD; [3]) of the same molecule?
Answer: 0.0422 µM

Question: What about the Ki (spFolD; vs NADP+, read-out: Ki (NADP+), carolacton inhibition on DH activity) of the same molecule?
Answer: 0.0342 µM

Question: And the IC50 (hsMTHFD2; [1])?
Answer: 0.0065 µM

Question: And the IC80 (hsMTHFD2; [2])?
Answer: 0.0317 µM

Question: And the Ki (hsMTHFD2; cofactor is NAD+ in the case of hsMTHFD2, read-out: Ki (NADP+), carolacton inhibition on DH activity)?
Answer: 0.0167 µM

Question: And the Ki (hsMTHFD2; [3])?
Answer: 0.00642 µM

Question: And the MIC (E. coli DSM-1116 (WT); DSM1116, + 3 µg/mL PMBN + 20 µg/mL PAβN, no full inhibition)?
Answer: 2 mg/L

Question: What about the MIC (E. coli DSM-1116 (WT); DSM1116, + 3 µg/mL PMBN, cation-adjusted Mueller–Hinton broth) of the same molecule?
Answer: ≥ 64 mg/L

Question: What about the MIC (E. coli DSM-1116 (WT); DSM1116, + 20 µg/mL PAβN (efflux inhibitor), no full inhibition) of the same molecule?
Answer: 2 mg/L

Question: What about the MIC (E. coli DSM-1116 (WT); DSM1116, no additive, cation-adjusted Mueller–Hinton broth) of the same molecule?
Answer: > 64 mg/L
